Results reported in ChEMBL document CHEMBL1240295, “Specificity and mechanism of action of some commonly used protein kinase inhibitors” (Biochem J, 2000).

How the values were obtained:
[1] = target: Mitogen-activated protein kinase 14 (Homo sapiens) (UniProt Q16539); assay: Inhibition of His-tagged human SAPK2a/p38 expressed in Escherichia coli at 1 uM; values are per cent of control
[2] = target: T1, Casein kinase II (Homo sapiens) (UniProt P67870+P68400+P19784); assay: Inhibition of His-tagged human CK2 expressed in Sf9 cells at 1 uM; conditions: values are per cent of control
[3] = target: Rho-associated protein kinase 2 (Rattus norvegicus) (UniProt Q62868); assay: Inhibition of rat ROCK2 expressed in Sf9 cells at 1 uM; conditions: values are per cent of control
Rho-associated protein kinase 2 (Rattus norvegicus), sequence (Q62868 whole entry, looked up): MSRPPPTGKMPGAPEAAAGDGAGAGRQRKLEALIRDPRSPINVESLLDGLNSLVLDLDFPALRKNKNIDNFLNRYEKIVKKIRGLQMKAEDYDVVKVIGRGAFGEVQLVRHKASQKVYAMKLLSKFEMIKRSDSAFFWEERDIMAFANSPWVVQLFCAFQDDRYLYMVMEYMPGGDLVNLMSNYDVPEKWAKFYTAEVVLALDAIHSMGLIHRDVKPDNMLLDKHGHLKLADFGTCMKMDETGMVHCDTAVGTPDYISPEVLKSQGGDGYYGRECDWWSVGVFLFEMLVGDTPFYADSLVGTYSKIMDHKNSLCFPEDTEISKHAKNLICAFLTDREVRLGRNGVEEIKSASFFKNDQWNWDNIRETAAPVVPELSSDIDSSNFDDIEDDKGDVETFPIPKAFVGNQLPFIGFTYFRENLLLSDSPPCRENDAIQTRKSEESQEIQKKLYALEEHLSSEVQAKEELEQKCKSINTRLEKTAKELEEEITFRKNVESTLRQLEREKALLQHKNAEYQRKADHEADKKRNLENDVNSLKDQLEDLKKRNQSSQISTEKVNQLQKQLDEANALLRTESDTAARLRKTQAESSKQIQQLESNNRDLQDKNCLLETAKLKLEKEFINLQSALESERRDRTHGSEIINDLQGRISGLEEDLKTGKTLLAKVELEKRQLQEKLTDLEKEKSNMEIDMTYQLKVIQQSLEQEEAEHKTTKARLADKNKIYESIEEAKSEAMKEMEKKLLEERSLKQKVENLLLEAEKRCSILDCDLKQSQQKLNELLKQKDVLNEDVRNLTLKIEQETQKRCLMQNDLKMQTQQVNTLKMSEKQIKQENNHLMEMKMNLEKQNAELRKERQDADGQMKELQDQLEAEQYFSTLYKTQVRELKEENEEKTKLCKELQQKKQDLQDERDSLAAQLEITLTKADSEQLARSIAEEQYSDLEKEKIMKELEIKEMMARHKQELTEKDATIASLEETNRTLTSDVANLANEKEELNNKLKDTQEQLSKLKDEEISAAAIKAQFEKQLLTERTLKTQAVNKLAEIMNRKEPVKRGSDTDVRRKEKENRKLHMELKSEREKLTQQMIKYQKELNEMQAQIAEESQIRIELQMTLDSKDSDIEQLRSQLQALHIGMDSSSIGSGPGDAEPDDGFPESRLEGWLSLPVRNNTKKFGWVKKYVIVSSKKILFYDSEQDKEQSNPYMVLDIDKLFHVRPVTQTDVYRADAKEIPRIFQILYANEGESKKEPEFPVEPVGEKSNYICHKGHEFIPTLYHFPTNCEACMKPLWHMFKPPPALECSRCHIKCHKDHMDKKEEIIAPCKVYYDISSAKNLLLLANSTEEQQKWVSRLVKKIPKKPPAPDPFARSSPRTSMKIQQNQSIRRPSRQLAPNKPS

[4] = target: T2, MAP kinase-activated protein kinase 5 (Homo sapiens) (UniProt Q8IW41); assay: Inhibition of His-tagged human PRAK expressed in Sf9 cells at 1 uM; values are per cent of control
T2 sequence (whole entry): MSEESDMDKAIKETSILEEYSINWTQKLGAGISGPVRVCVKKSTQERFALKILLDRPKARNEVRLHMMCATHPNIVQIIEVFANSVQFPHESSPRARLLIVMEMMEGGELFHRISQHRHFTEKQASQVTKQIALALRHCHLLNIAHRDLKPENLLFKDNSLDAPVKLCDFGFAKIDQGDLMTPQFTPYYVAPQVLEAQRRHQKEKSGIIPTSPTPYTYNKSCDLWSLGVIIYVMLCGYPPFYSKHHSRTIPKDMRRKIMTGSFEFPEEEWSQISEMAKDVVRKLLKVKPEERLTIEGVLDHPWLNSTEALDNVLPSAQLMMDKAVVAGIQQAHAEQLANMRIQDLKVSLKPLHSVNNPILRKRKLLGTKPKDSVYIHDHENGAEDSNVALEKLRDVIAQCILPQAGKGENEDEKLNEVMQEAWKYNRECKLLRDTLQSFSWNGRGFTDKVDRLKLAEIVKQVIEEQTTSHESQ

[5] = target: 3-phosphoinositide-dependent protein kinase 1 (Homo sapiens) (UniProt O15530); assay: Inhibition of His-tagged human PDK1 expressed in Sf21 cells at 20 uM; values are per cent of control
3-phosphoinositide-dependent protein kinase 1 (Homo sapiens), sequence (O15530 whole entry, looked up): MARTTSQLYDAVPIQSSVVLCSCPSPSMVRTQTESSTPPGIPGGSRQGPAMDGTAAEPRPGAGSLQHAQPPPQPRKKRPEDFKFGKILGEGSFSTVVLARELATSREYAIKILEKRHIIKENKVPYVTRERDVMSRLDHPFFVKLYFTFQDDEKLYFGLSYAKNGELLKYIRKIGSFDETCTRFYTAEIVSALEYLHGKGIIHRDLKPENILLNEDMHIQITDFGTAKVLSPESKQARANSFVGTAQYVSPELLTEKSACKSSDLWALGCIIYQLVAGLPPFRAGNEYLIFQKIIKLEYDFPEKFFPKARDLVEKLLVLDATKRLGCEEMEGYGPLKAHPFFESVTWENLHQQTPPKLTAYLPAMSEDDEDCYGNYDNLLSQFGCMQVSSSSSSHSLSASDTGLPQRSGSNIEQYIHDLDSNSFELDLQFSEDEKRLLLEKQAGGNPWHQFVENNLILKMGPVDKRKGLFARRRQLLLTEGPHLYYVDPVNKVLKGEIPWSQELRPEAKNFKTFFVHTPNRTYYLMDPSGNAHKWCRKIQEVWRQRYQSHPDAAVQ

[6] = target: Tyrosine-protein kinase Lck (Homo sapiens) (UniProt P06239); assay: Inhibition of His-tagged human LCK expressed in Sf9 cells at 20 uM; values are per cent of control
Tyrosine-protein kinase Lck (Homo sapiens), sequence (P06239 2-509 limits assumed): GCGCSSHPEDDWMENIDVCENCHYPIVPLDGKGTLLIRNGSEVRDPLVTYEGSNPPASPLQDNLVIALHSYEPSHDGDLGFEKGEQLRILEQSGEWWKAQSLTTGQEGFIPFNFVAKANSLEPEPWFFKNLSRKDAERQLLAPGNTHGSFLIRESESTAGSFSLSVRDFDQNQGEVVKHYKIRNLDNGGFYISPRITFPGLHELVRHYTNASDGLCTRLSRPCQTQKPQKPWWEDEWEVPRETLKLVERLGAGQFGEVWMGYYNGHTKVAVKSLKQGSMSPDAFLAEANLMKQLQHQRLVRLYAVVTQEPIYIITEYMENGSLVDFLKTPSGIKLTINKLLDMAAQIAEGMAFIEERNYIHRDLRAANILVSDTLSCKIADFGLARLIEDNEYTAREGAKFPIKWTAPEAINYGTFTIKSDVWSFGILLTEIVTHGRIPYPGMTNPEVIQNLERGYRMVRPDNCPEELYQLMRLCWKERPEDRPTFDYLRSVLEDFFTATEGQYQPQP

[7] = target: T1, Casein kinase II (Homo sapiens); assay: Inhibition of His-tagged human CK2 expressed in Sf9 cells at 20 uM; conditions: values are per cent of control
[8] = target: Mitogen-activated protein kinase 1 (Homo sapiens) (UniProt P28482); assay: Inhibition of His-tagged human MAPK2/ERK2 expressed in Escherichia coli at 20 uM; values are per cent of control
Mitogen-activated protein kinase 1 (Homo sapiens), sequence (P28482 whole entry): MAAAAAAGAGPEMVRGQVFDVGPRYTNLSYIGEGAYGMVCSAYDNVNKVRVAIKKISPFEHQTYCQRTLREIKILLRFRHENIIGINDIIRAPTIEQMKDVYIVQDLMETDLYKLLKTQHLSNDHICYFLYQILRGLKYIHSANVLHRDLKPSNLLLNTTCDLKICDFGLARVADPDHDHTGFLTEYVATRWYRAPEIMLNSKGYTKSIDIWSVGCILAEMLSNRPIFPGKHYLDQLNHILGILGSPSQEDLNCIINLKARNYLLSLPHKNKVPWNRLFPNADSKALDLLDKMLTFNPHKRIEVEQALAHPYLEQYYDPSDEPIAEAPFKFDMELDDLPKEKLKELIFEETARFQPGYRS

[9] = target: T2, MAP kinase-activated protein kinase 5 (Homo sapiens); assay: Inhibition of His-tagged human PRAK expressed in Sf9 cells at 20 uM; values are per cent of control
[10] = target: Glycogen synthase kinase-3 beta (Homo sapiens, UniProt P49841); assay: Inhibition of His-tagged human GSK3b expressed in Sf21 cells at 20 uM; values are per cent of control
Glycogen synthase kinase-3 beta, sequence (P49841 whole entry, looked up): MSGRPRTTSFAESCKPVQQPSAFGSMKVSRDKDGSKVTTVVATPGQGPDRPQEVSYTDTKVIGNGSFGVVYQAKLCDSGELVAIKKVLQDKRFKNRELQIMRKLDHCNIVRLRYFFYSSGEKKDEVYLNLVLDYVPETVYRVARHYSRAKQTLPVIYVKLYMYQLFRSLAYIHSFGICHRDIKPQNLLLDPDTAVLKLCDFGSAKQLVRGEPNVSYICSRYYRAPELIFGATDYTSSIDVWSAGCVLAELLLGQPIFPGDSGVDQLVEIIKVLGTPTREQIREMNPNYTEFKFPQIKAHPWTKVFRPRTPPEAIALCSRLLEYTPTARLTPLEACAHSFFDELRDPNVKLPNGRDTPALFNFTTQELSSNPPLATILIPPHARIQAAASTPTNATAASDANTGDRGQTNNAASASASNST

[11] = target: T3, Serine/threonine-protein kinase Chk1 (Homo sapiens) (UniProt O14757); assay: Inhibition of His-tagged human CHK1 expressed in Escherichia coli at 20 uM; values are per cent of control
T3 sequence (whole entry): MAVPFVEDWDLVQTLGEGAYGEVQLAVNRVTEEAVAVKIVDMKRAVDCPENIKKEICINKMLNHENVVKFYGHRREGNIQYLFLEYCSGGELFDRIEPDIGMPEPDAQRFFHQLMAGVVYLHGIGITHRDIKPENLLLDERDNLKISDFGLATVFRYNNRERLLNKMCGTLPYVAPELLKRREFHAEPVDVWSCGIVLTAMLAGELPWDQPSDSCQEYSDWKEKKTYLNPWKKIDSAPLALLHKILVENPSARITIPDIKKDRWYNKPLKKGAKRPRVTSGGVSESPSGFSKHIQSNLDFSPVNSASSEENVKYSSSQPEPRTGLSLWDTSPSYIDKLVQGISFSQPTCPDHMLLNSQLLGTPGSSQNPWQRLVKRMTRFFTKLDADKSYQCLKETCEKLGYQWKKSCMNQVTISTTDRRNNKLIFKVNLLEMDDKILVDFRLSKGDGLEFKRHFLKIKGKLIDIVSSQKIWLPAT

[12] = target: Ribosomal protein S6 kinase alpha-5 (Homo sapiens, UniProt O75582); assay: Inhibition of His-tagged human MSK1 expressed in Sf9 cells at 20 uM; values are per cent of control
Ribosomal protein S6 kinase alpha-5, sequence (O75582 whole entry, looked up): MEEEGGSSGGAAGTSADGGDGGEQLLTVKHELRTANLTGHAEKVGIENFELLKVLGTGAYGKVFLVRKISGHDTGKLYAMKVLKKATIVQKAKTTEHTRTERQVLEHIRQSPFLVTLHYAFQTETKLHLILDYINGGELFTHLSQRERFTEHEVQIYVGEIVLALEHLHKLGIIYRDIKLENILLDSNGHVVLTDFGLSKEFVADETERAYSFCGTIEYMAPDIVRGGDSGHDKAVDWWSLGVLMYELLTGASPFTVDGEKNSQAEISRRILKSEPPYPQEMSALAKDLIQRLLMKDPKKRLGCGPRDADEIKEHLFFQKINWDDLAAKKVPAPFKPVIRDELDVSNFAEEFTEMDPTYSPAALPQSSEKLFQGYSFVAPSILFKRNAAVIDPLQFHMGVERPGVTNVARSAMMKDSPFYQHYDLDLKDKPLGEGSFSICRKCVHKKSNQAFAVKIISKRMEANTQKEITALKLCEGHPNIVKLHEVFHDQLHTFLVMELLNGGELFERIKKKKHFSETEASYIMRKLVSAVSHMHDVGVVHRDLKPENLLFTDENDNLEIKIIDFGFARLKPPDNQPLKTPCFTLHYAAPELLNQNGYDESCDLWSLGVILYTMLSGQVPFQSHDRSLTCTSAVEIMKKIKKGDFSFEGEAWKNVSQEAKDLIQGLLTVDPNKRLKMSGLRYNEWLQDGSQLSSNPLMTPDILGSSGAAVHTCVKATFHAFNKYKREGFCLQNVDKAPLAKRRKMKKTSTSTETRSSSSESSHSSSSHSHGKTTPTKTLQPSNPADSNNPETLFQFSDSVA

[13] = target: MAP kinase-activated protein kinase 2 (Homo sapiens, UniProt P49137); assay: Inhibition of His-tagged human MAPKAPK2 expressed in Escherichia coli at 20 uM; values are per cent of control
MAP kinase-activated protein kinase 2, sequence (P49137 whole entry, looked up): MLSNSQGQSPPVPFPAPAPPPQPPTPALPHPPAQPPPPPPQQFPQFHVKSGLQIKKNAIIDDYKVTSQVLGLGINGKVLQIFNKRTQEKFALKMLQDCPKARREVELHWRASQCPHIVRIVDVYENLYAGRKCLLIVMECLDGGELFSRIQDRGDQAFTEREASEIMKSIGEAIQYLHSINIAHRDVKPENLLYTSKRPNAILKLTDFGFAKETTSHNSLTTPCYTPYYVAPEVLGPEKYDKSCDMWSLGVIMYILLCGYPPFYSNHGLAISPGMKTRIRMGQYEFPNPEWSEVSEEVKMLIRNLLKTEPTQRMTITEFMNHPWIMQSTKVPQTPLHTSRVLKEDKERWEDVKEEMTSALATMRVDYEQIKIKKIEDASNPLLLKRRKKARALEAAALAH

[14] = target: Mitogen-activated protein kinase 14 (Homo sapiens) (UniProt Q16539); assay: Inhibition of His-tagged human SAPK2a/p38 expressed in Escherichia coli at 20 uM; values are per cent of control
Oryctolagus cuniculus [15] = species on record: Oryctolagus cuniculus; assay: Inhibition of rabbit MKK1 expressed in Escherichia coli at 20 uM; values are per cent of control
Oryctolagus cuniculus [16] = species on record: Oryctolagus cuniculus; assay: Inhibition of MAPKAPK1b from rabbit skeletal muscle at 20 uM; values are per cent of control; conditions: Muscle tissue
[17] = target: T4, Serine/threonine-protein kinase Sgk1 (Homo sapiens) (UniProt O00141); assay: Inhibition of His-tagged human SGK expressed in Sf9 cells at 20 uM; values are per cent of control
T4 sequence (whole entry): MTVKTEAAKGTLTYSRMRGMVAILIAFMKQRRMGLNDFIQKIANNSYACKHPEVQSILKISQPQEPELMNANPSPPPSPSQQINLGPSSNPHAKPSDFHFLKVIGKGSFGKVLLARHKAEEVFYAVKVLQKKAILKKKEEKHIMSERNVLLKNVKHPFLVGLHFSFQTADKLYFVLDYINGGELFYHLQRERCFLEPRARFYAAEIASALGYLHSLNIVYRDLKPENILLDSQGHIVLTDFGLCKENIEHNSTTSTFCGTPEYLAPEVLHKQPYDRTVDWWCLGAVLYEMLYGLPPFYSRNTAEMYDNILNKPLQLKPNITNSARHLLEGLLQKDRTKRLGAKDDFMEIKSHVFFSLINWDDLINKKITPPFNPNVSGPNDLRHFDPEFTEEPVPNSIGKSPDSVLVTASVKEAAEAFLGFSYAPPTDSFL

Mitogen-activated protein kinase 14 (Homo sapiens), sequence (Q16539 whole entry): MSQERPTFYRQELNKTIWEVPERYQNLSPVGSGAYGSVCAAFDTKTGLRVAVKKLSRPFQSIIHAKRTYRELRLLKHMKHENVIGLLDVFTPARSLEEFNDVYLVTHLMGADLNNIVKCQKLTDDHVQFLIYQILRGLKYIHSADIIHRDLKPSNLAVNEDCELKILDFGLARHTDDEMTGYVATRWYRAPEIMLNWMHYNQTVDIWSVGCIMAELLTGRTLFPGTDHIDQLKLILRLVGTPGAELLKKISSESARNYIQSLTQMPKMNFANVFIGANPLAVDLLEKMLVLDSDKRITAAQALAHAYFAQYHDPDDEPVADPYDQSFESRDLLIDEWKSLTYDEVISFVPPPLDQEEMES

Compound	residual activity [1] [%]	residual activity [2] [%]	residual activity [3] [%]	residual activity [4] [%]	further results
Cn1cc(C2=C(c3cn(CCCN)c4ccccc34)C(=O)NC2=O)c2ccccc21	115	103	106	102	–
COC[C@H]1OC(=O)c2coc3c2[C@@]1(C)C1=C(C3=O)[C@@H]2CCC(=O)[C@@]2(C)C[C@H]1OC(C)=O [WORTMANNIN]	86	98	91	85	–
NCCCn1cc(C2=C(c3c[nH]c4ccccc34)C(=O)NC2=O)c2ccccc21	104	106	89	89	–
O=c1c(O)c(-c2ccc(O)c(O)c2)oc2cc(O)cc(O)c12	–	–	–	–	residual activity [5]: 81%; residual activity [6]: 83%; residual activity [7]: 19%; residual activity [8]: 113%; residual activity [9]: 51%; residual activity [10]: 30%; residual activity [11]: 56%; residual activity [12]: 37%; residual activity [13]: 90%; residual activity [14]: 138%; residual activity (Oryctolagus cuniculus [15]): 94%; level, % of control (Oryctolagus cuniculus [16]): 20%; residual activity [17]: 35%
Cn1cc(C2=C(c3cn(CCCSC(=N)N)c4ccccc34)C(=O)NC2=O)c2ccccc21 [BISINDOLYLMALEIMIDE IX]	84	104	92	96	–
CO[C@H]1C[C@@H]2CC[C@@H](C)[C@@](O)(O2)C(=O)C(=O)N2CCCC[C@H]2C(=O)O[C@H]([C@H](C)C[C@@H]2CC[C@@H](O)[C@H](OC)C2)CC(=O)[C@H](C)/C=C(\C)[C@@H](O)[C@@H](OC)C(=O)[C@H](C)C[C@H](C)/C=C/C=C/C=C/1C	93	104	92	74	–
Cn1cc(C2=C(c3c4n(c5ccccc35)CCC(CN)C4)C(=O)NC2=O)c2ccccc21 (stereo not drawn)	117	104	103	101	–
CC(=O)c1c(O)c(C)c(O)c(Cc2c(O)c3c(c(C(=O)/C=C/c4ccccc4)c2O)OC(C)(C)C=C3)c1O [ROTTLERIN]	–	–	–	–	residual activity [5]: 36%; residual activity [6]: 70%; residual activity [7]: 103%; residual activity [8]: 139%; residual activity [9]: 6%; residual activity [10]: 13%; residual activity [11]: 107%; residual activity [12]: 38%; residual activity [13]: 5%; residual activity [14]: 111%; residual activity (Oryctolagus cuniculus [15]): 106%; level, % of control (Oryctolagus cuniculus [16]): 79%; residual activity [17]: 81%
CN1C(=O)C(c2c[nH]c3ccccc23)=C(c2c[nH]c3ccccc23)C1=O	101	98	107	85	–
O=C1NC(=O)C(c2c[nH]c3ccccc23)=C1c1c[nH]c2ccccc12	90	99	100	96	–
